Test results reported in BindingDB's records for doi:10.7270/Q25719FH (Srmlsc, 2007).

Molecular target: Multidrug resistance-associated protein 1 (Homo sapiens, UniProt P33527)
Experiment: viability protection against doxorubicin, MRP-1 line – cell-based, doxorubicin EC50 shift, dose response (AID 844)

Multidrug resistance-associated protein 1, sequence (P33527 whole entry): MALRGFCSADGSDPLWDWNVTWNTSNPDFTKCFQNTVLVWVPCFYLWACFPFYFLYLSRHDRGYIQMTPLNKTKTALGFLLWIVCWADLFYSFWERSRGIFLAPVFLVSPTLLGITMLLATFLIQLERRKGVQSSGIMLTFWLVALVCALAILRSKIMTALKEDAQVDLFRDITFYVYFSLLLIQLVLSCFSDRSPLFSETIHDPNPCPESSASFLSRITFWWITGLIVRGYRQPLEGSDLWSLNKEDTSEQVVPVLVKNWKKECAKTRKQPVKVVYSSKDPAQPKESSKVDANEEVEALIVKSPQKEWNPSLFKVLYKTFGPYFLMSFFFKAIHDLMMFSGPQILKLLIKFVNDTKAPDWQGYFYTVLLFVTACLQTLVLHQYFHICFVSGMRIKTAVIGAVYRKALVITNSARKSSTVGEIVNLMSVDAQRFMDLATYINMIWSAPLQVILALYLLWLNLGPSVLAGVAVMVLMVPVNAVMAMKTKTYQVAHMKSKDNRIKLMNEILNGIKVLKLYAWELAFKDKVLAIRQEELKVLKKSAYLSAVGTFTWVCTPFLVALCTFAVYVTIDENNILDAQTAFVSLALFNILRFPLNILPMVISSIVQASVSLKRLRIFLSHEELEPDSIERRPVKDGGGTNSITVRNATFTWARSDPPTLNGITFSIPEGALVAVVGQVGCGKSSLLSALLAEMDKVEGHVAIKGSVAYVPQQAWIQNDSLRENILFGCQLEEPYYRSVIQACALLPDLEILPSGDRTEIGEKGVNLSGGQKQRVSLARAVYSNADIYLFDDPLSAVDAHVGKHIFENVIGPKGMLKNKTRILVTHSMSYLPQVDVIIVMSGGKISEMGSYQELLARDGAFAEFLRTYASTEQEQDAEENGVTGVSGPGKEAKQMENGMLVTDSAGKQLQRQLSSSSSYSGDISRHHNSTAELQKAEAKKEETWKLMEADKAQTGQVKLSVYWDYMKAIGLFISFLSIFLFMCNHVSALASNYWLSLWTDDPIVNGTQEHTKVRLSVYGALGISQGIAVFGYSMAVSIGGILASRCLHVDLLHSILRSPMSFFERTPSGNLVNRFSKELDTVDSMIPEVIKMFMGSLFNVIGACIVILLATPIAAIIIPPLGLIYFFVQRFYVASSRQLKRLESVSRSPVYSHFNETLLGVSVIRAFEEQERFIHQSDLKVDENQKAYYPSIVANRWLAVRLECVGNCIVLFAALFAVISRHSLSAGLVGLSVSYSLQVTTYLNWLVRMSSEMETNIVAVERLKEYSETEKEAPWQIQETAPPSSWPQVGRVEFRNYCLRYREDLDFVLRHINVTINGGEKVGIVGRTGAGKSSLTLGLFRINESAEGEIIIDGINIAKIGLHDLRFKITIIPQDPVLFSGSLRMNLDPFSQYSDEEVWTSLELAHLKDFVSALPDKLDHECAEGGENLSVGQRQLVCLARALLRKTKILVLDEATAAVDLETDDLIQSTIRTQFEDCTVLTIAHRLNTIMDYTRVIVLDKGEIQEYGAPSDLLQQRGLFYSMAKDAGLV

| Compound | EC50 [µM] |
| --- | --- |
| COC(=O)C1=C(C)N=C(C)C(C(=O)OC)C1c1ccccc1OCc1c(C)n[o+]n1[O-] (stereo not drawn) | 5.32 |
| O=c1[nH]c2ccccc2n1C1CCN(c2cc(O)n(-c3ccc(F)cc3)c2O)CC1 | 7.59 |
| CCOC(=O)C1C(C)=Nc2ncnn2C1c1cccnc1 (stereo not drawn) | 4.5 |
| COc1ccc(-n2c(O)cc(N3CCC(n4c(=O)[nH]c5ccccc54)CC3)c2O)cc1 | 5.64 |
| Cc1ccc(-n2[nH]c(C)c(C(c3ccccc3O)c3c(C)[nH]n(-c4ccc(C)cc4C)c3=O)c2=O)c(C)c1 | 3.81 |
| COc1ccc(Cc2nnc(N=NCc3ccc(O)cc3O)[nH]c2=O)cc1OC | 0.836 |
| O=S(=O)(c1ccc(Cl)cc1Br)N1CCCCC1 [1-(2-bromanyl-4-chloranyl-phenyl)sulfonylpiperidine] | 5.42 |
| Oc1cc(N2CCCN(c3cc(O)n(-c4ccc(F)cc4)c3O)CC2)c(O)n1-c1ccc(F)cc1 [1-(4-fluorophenyl)-3-[4-[1-(4-fluorophenyl)-2,5-bis(oxidanylidene)pyrrolidin-3-yl]-1,4-diazepan-1-yl]pyrrolidine-2,5-dione] | 6.34 |
| COc1ccc(-n2c(O)cc(N3CCC(O)(c4cccc(C(F)(F)F)c4)CC3)c2O)cc1 [1-(4-methoxyphenyl)-3-[4-oxidanyl-4-[3-(trifluoromethyl)phenyl]piperidin-1-yl]pyrrolidine-2,5-dione] | 4.82 |
| CC1CCN(S(=O)(=O)c2ccc(Br)s2)CC1 [1-(5-bromanylthiophen-2-yl)sulfonyl-4-methyl-piperidine] | 3.52 |
| C=CCN(C(=O)Nc1ccc(Cl)cc1)c1cc(O)n(-c2ccc(OC)cc2)c1O [1-allyl-3-(4-chlorophenyl)-1-[2,5-diketo-1-(4-methoxyphenyl)pyrrolidin-3-yl]urea] | 4.85 |
| COC1(OC)C(O)CCC(N=O)C1N=O (stereo not drawn) [2,2-dimethoxy-3-nitroso-4-(oxidanylamino)cyclohex-3-en-1-ol] | 4.16 |
| N#CC1C(=N)SC(=N)C(C#N)C1c1cccc(O)c1 (stereo not drawn) [2,6-Diamino-4-(3-hydroxy-phenyl)-4H-thiopyran-3,5-dicarbonitrile] | 5.78 |
| O=C1CCCC(=O)C1=NNc1ccc2c(c1)OCO2 [2-(1,3-benzodioxol-5-ylhydrazinylidene)cyclohexane-1,3-dione] | 6.29 |
| Cc1cccc(NC(=O)Cc2sc(=O)n(-c3ccccc3)c2O)c1 [2-(2,4-Dioxo-3-phenyl-thiazolidin-5-yl)-N-m-tolyl-acetamide] | 5.15 |
| Cc1ccccc1NC(=O)Cc1sc(=O)n(-c2ccccc2)c1O [2-(2,4-Dioxo-3-phenyl-thiazolidin-5-yl)-N-o-tolyl-acetamide] | 7.29 |
| O=C(Cc1sc(=O)n(-c2ccccc2)c1O)Nc1ccccc1 [2-(2,4-diketo-3-phenyl-thiazolidin-5-yl)-N-phenyl-acetamide] | 6.42 |
| COc1ccc(N2C(=S)C(C#N)C(=O)NC2c2ccco2)cc1 (stereo not drawn) [2-(2-furanyl)-4-mercapto-3-(4-methoxyphenyl)-6-oxo-1,2-dihydropyrimidine-5-carbonitrile] | 2.2 |
| Oc1nc(Nc2ccc(Cl)cc2)sc1Cc1cccc(Cl)c1Cl [2-(4-chloroanilino)-5-(2,3-dichlorobenzyl)-2-thiazolin-4-one] | 6.41 |

| Compound | EC50 [µM] |
| --- | --- |
| Oc1nc(Nc2ccc(Cl)cc2)sc1Cc1cc(Cl)ccc1Cl [2-(4-chloroanilino)-5-(2,5-dichlorobenzyl)-2-thiazolin-4-one] | 5.86 |
| Cc1cc(N=NCc2ccccc2Cl)nc(NCc2ccccc2)n1 [2-N-benzyl-4-N-[(2-chlorophenyl)methylideneamino]-6-methylpyrimidine-2,4-diamine] | 1.08 |
| COc1ccc(-n2c(O)c(CC(=O)Nc3ccc(F)cc3)n(CCc3cccs3)c2=O)cc1 [2-[2,5-diketo-1-(4-methoxyphenyl)-3-[2-(2-thienyl)ethyl]imidazolidin-4-yl]-N-(4-fluorophenyl)acetamide] | 4.38 |
| N#CC(C#N)N=Nc1ccc(S(=O)(=O)N2CCCC2)cc1 [2-[(4-pyrrolidin-1-ylsulfonylphenyl)hydrazinylidene]propanedinitrile] | 5.88 |
| O=C1C=CC([N+](=O)[O-])=CC1/C=N/n1cnc2ccccc21 (stereo not drawn) [2-[(E)-Benzoimidazol-1-yliminomethyl]-4-nitro-phenol] | 3.61 |
| Oc1nc(Nc2ccccc2)sc1Cc1cccc(Cl)c1Cl [2-anilino-5-(2,3-dichlorobenzyl)-2-thiazolin-4-one] | 6.54 |
| O=[N+]([O-])c1ccc(N=NCc2ccccc2)c(F)c1 [2-fluoranyl-4-nitro-N-[(phenylmethylidene)amino]aniline] | 3.44 |
| C=C(C)C(=O)Nc1cc(=O)n(-c2ccccc2)[nH]1 [2-methyl-N-(5-oxo-1-phenyl-4H-pyrazol-3-yl)prop-2-enamide] | 5.63 |
| COc1ccccc1C1C(C(=O)c2sc(C)nc2C)C(=O)C(=O)N1CCN1CCOCC1 (stereo not drawn) [3-(2,4-dimethyl-1,3-thiazole-5-carbonyl)-4-hydroxy-2-(2-methoxyphenyl)-1-(2-morpholin-4-ylethyl)-2H-pyrrol-5-one] | 3.81 |
| CCOC(=O)C1C(C)=Nc2sc(C(=O)c3ccc(OC)cc3)c(N)c2C1c1ccc(C(=O)OC)cc1 (stereo not drawn) [3-Amino-2-(4-methoxy-benzoyl)-4-(4-methoxycarbonyl-phenyl)-6-methyl-4,7-dihydro-thieno[2,3-b]pyridine-5-carboxylic acid ethyl ester] | 1.1 |
| CCOC(=O)C1C(C)=Nc2sc(C(=O)c3ccc(C)cc3)c(N)c2C1c1ccc(C(=O)OC)cc1 (stereo not drawn) [3-Amino-4-(4-methoxycarbonyl-phenyl)-6-methyl-2-(4-methyl-benzoyl)-4,7-dihydro-thieno[2,3-b]pyridine-5-carboxylic acid ethyl ester] | 1.96 |
| Oc1cc(N2CCN(c3nc4ccccc4s3)CC2)c(O)n1-c1ccc(F)cc1 [3-[4-(1,3-benzothiazol-2-yl)-1-piperazinyl]-1-(4-fluorophenyl)pyrrolidine-2,5-dione] | 6.38 |
| Oc1cc(N2CCC(c3nc4ccccc4o3)CC2)c(O)n1-c1cc(Cl)cc(Cl)c1 [3-[4-(1,3-benzoxazol-2-yl)-1-piperidinyl]-1-(3,5-dichlorophenyl)-2,5-pyrrolidinedione] | 7.36 |
| Oc1cc(N2CCC(O)(c3ccc(Br)cc3)CC2)c(O)n1-c1ccc(Cl)cc1 [3-[4-(4-bromophenyl)-4-hydroxy-1-piperidinyl]-1-(4-chlorophenyl)-2,5-pyrrolidinedione] | 7.39 |
| O=C(O)c1cccc(-n2c(O)c3c(c2O)CC(Cl)=CC3)c1 [3-[5-chloranyl-1,3-bis(oxidanylidene)-3a,4,7,7a-tetrahydroisoindol-2-yl]benzoic acid] | 7.97 |
| COc1cccc(C=Nn2c(O)csc2=S)c1O [3-[[(E)-(5-methoxy-6-oxidanylidene-cyclohexa-2,4-dien-1-ylidene)methyl]amino]-2-sulfanylidene-1,3-thiazolidin-4-one] | 7.08 |
| CCSC(C)CC1Cc2onc(CC)c2C(N=O)C1 (stereo not drawn) [3-ethyl-6-[2-(ethylthio)propyl]-6,7-dihydro-5H-1,2-benzoxazol-4-one oxime] | 6.85 |
| O=CC(=NNc1ccccc1)C(=O)c1ccncc1 [3-keto-2-(phenylhydrazono)-3-(4-pyridyl)propionaldehyde] | 7.54 |
| Cc1cc(=O)oc2c1ccc1oc(C(N=O)c3ccccc3)c(C)c12 (stereo not drawn) [4,9-dimethyl-8-(N-oxidanyl-C-phenyl-carbonimidoyl)furo[2,3-h]chromen-2-one] | 7.02 |
